Experiments:
[1] = tested on: Dihydrofolate Reductase (DHFR); assay: Protection of DHFR from proteolytic digestion by Proteinase K, undigested DHFR quantified by ELISA; type: binding; conditions: same methods as Example 1, separate experiments, 54° C., 5 minutes
Protocol: (§1) Samples were removed and undigested DHFR was quantified by ELISA as follows:
(§2) (a) Protease incubations were diluted 50 fold with Tris-buffered saline (TBS);
(§3) (b) 50 μl diluted samples were transferred to the wells of an ELISA plate and incubated 60 minutes at room temperature;
(§4) (e) plate wells were washed as in (c) above;
(§5) (g) plate wells were washed as in (c); and […]

[2] = tested on: Dihydrofolate Reductase (DHFR); assay: Protection of DHFR from Proteinase K digestion in the presence of a mixture of all 20 common amino acids, ELISA; type: binding; conditions: 10^-5M ligand, 10^-5M of all 20 common amino acids, DHFR 2.1 μg/ml, Proteinase K 80 μg/ml, 54° C., 5 minutes
Protocol: The following were combined and incubated at 54° C. for 5 minutes: DHFR (2.1 μg/ml), Proteinase K (80μg/ml), 0.1M Tris-HCl [pH 7.5], 10^-5M of all 20 common amino acids and either 0 or 10^-5M ligand.
as §1, §2, §3, §4, §5

SMILES: NC(=O)C1=CN([C@@H]2O[C@H](COP(=O)(O)OP(=O)(O)OC[C@H]3O[C@@H](n4cnc5c(N)ncnc54)[C@H](OP(=O)(O)O)[C@@H]3O)[C@@H](O)[C@H]2O)C=CC1 [NADPH]
- concentration at which ligand inhibits proteolysis of DHFR [1]: ≥ 10^-5
- protection of DHFR from digestion relative to the absence of ligands [2]: Protects Dihydrofolate Reductase (DHFR) From Proteolytic Digestion

Reference: US5585277A, “Screening method for identifying ligands for target proteins” (Scriptgen Pharmaceuticals, Inc., priority 1995, dated 1996)
